The values that follow come from patent US20250382298A1, “NITROGEN-CONTAINING COMPOUND AND USE THEREOF” (SUZHOU GENHOUSE BIO CO., LTD., priority 2022, published 2025).

Structures are written as SMILES. Like-named read-outs stand apart in the source and are kept apart here.

Series [1] relates to OVCAR3 cells. Put plainly: Detection of OVCAR3 cell proliferation activity by CTG method. The class given is cell-based. Conditions: CellTiter-Glo, 7 days. The text has this: This assay can be used to examine the potency of compounds in inhibiting the proliferation of tumor cells (OVCAR3, HT-29, BT-549, HCT-116). A lower IC50 value indicates high potency of the compound as a KIF18A inhibitor in the following assay setup,
1640 medium; fetal bovine serum; penicillin/streptomycin antibiotics purchased from Wisent; CellTiter-Glo (chemiluminescence detection reagent for cell viability) reagent purchased from Promega; OVCAR3 cell line purchased from Nanjing Cobioer Biosciences Co., Ltd.; Nivo multimode microplate reader (PerkinElmer),
OVCAR3 cells were seeded into a white 96-well plate, with 80 μL of cell suspension containing 2000 OVCAR3 cells added to each well. The cell plate was incubated in a CO2 incubator overnight.
A test compound was 5-fold diluted to the 8th concentration (i.e., from 2 mM to […]) using a multichannel pipette, with duplicate wells set up. To an intermediate plate was added 78 μL of medium, and the serially diluted compound was transferred to the corresponding wells of the intermediate plate at 2 μL/well. The mixture was mixed well and then transferred to the cell plate at 20 μL/well. The concentration of the compound transferred to the cell plate ranged from 10 μM to 0.026 nM. The cell plate was incubated in a CO2 incubator for 7 days. Another cell plate was prepared and read for signal values on the day of compound addition, and these values were used as the maximum values (the Max value in the equation below) in data analysis. To this cell plate was added the chemiluminescence detection reagent for cell viability at 25 μL/well, and the luminescence signals were stabilized by incubation at room temperature for 10 min. Readings were taken using the multimode microplate reader.
To the cell plate was added the chemiluminescence detection reagent for cell viability at 25 μL/well, and the luminescence signals were stabilized by incubation at room temperature for 10 mm. Readings were taken using the multimode microplate reader, […]

In series [2] the test system is HT-29 cells. Put plainly: Detection of cell proliferation activity by CCK8 method (HT-29). The class given is cell-based, human. Conditions: CCK8, 96 h. Summed up: (§1)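 Cells seeded at 1500/well (BT-549, 1640 medium) or 2000/well (HT-29, HCT-116, McCoy's 5A), treated next day with 9-point 1:5 dilutions from 10 μM final, triplicate, for 96 h. CCK8 read at 450 nm after 2 h at 37 °C; inhibition versus DMSO, IC50 by non-linear regression.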

The subject of the next series is BT-549 cells. Put plainly: Detection of cell proliferation activity by CCK8 method (BT-549). Conditions: CCK8, 96 h. The class given is cell-based. The gist of the method:
as §1

The subject of series [3] is HCT-116 cells. Put plainly: Detection of cell proliferation activity by CCK8 method (HCT-116). The class given is cell-based. Conditions: CCK8, 96 h. Summed up: as §1
A further series deals with KIF18A (Homo sapiens (Human), UniProt Q8NI77). Put plainly: KIF18A enzymatic activity inhibition, ADP-Glo kit. The class given is biochemical. Conditions: 4 nM KIF18A, 30 μM ATP. The procedure:
In this experiment, an ADP-Glo kit was used to detect the inhibitory activity of the compounds against KIF18A. Each compound was prepared into a 10 mM stock solution with DMSO, which was then diluted at 1:5 to obtain 9 gradients with the initial final concentration set at 10 μM. Meanwhile, a control group and a blank group were also set up. The reaction buffer consisted of 15 mM Tris (pH 7.5), 10 mM MgCl2, and 0.01% Pluronic F-68. 4 nM KIF18A (1467) and the test compound were added to a 384-well plate and incubated at 37° C. for 20 mm. Then, 30 μM ATP was added to initiate the enzymatic reaction, and the plate was incubated at room temperature for 15 min. Finally, the ADP-Glo reagent was added to detect the luminescence intensity, where the luminescence intensity is directly proportional to the ADP content. Inhibition rate (%)=[…]. Sample signal is the value of the compound group, and DMSO signal is the value of the DMSO control group. Then, the inhibition rate at each concentration was calculated, and the IC50 was determined by fitting using the GraphPadPrism 7.0 software.

Series [4] has as its system HT-29 cells. Put plainly: Mitotic index analysis, pH3 expression in HT-29 cells. Format: cell-based, human. Conditions: 24 h treatment. The gist of the method:
(§2)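 HCT-116 or HT-29 cells treated 24 h with 9-point 3-fold dilutions from 10 μM, then fixed and immunostained for phospho-histone H3 with DRAQ5 counterstain. Near-infrared fluorescence read at 700/800 nm; pH3 expressed as % of DMSO control and EC50 fitted.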

Series [5] concerns HCT-116 cells. Put plainly: Mitotic index analysis, pH3 expression in HCT-116 cells. Conditions: 24 h treatment. Format: cell-based. The gist of the method: as §2
The test system of series [6] is OVCAR3 cells. Put plainly: Detection of cell proliferation activity by CCK8 method (OVCAR3). Format: cell-based. Summed up: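 OVCAR3 tumor cells in log-phase growth were trypsinized, counted and plated at 180 μL per well in 96-well plates, with PBS in the outer wells. The following day, compounds were added in 9 concentrations (1:5 dilutions starting at 10 μM final) in triplicate alongside DMSO controls. After 96 h, medium was swapped for 100 μL medium containing 10% CCK8. Plates were incubated 2 h at 37° C and read at 450 nm. Background-corrected inhibition relative to DMSO was fitted by non-linear regression in GraphPad Prism 7.0 to obtain IC50.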

A short description of series [7]: Pharmacokinetic test in mice. Format: in vivo. Conditions: BALB/c mice; for AUC / Cmax / half-life: mouse, plasma; for half-life: read-out: t½ (converted). The procedure:
In this example, the pharmacokinetic behavior of the compounds after intravenous injection (IV) and intragastric (PO) administration in BALB/c mice was tested.
On the day of administration, mice were weighed for actual body weight and the administration volume was calculated. Each compound was tested in two groups with 9 mice in each group; one group was subjected to administration by single intravenous injection, and the other group of mice was subjected to single intragastric administration. Whole blood samples were collected via the orbit at prescribed time points (0.25 h, 0.5 h, 1 h, 2 h, 4 h, 8 h, and 24 h after administration). After blood sample collection, the samples were immediately transferred to labeled commercial sample tubes containing K2-EDTA (0.85-1.15 mg), followed by centrifugation (3200×g, 4° C., 10 min) and plasma collection. The plasma was transferred to a pre-cooled centrifuge tube, frozen in dry ice, and then stored in an ultra-low temperature freezer at −60° C. or lower until the LC-MS/MS analysis.
Plasma concentrations were determined by the LC-MS/MS method. Plasma drug concentration data for the compounds were processed using a non-compartmental model in the WinNonlin Version 6.3 (Pharsight, Mountain View, CA) pharmacokinetic software. The relevant pharmacokinetic parameters were calculated by a linear-log trapezoidal method.

[8] abbreviates: Homo sapiens, OVCAR-3, CCK8, 96 h.

KIF18A, sequence (Q8NI77 1-467): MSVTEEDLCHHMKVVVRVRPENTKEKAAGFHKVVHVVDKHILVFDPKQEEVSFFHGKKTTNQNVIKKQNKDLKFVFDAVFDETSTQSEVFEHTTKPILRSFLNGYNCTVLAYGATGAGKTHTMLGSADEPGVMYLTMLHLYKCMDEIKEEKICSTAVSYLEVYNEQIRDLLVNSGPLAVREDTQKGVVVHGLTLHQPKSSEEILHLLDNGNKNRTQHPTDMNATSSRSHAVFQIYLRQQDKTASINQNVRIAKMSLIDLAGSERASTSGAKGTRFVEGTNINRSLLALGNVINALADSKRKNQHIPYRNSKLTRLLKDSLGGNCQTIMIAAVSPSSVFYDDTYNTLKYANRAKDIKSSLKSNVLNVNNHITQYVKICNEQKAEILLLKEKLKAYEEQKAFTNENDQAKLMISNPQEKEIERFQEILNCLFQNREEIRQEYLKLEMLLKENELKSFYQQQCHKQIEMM

As for `CC1(S(=O)(=O)Nc2ccc(C(=O)Nc3cn4ccnc4c(N4CCC(F)(F)CC4)n3)c(N3CCC4(CC3)CC4)c2)CC1` [Compound 13], the half-inhibitory concentration (IC50) in the series with OVCAR3 cells [1] (Homo sapiens, OVCAR-3, 168 h) is 33 nM; in the series on HT-29 cells [2] (Homo sapiens), 131 nM; in the series with BT-549 cells (Homo sapiens), 110 nM; with HCT-116 cells [3] (Homo sapiens), greater than 10000 nM; against KIF18A, 187 nM. For the same compound, the half-maximal effective concentration (EC50) with HT-29 cells [4] (Homo sapiens) was 235 nM; in the series with HCT-116 cells [5] (Homo sapiens), greater than 10000 nM.
Consider `Cn1ccc2cc(NC(=O)c3ccc(NS(=O)(=O)CCO)cc3N3CCC4(CC3)CC4)nc(N3CCC(F)(F)CC3)c21` [Compound 18], for which the IC50 in the series on OVCAR3 cells [1] (Homo sapiens, OVCAR-3, 168 h) is 93 nM; in the series on HT-29 cells [2] (Homo sapiens), 336 nM; with BT-549 cells (Homo sapiens), 247 nM; in the series on HCT-116 cells [3] (Homo sapiens) it was greater than 10000 nM; at KIF18A, 93.2 nM. Moreover, the EC50 was 87 nM in the series with HT-29 cells [4] (Homo sapiens) and greater than 10000 nM in the series on HCT-116 cells [5] (Homo sapiens).
Consider `O=C(Nc1cn2cncc2c(N2CCC(F)(F)CC2)n1)c1ccc(NS(=O)(=O)CCO)cc1N1CCC2(CC1)CC2` [Compound 27], for which the 50% inhibitory concentration (IC50) in the series with OVCAR3 cells [1] is 38.6 nM; in the series on OVCAR3 cells [6] (CCK8, 96 h), 27.2 nM; in the series with HT-29 cells [2] it was 141 nM; with BT-549 cells, 81.9 nM; in the series with HCT-116 cells [3], greater than 10000 nM; against KIF18A it was 23.1 nM. Also, the EC50 in the series on HT-29 cells [4] is 34.6 nM; in the series on HCT-116 cells [5], greater than 10000 nM.
With `O=C(Nc1cc2nn[nH]c2c(N2CCC(F)(F)CC2)n1)c1ccc(NS(=O)(=O)CCO)cc1N1CCC2(CC1)CC2` [Compound 28], the IC50 in the series with OVCAR3 cells [1] was 27.4 nM; in the series with OVCAR3 cells [6] (CCK8, 96 h), 23.4 nM; with HT-29 cells [2], 321 nM; with BT-549 cells it was 117 nM; in the series with HCT-116 cells [3], greater than 10000 nM; at KIF18A it was 33.4 nM. Besides, the concentration giving a half-maximal response (EC50) in the series on HT-29 cells [4] is 77.8 nM; in the series on HCT-116 cells [5], greater than 10000 nM.
`CS(=O)(=O)Nc1ccc(C(=O)Nc2cn3ncnc3c(N3CCC(F)(F)CC3)n2)c(N2CCC3(CC2)CC3)c1` [Compound 57]: the IC50 in the series with OVCAR3 cells [6] (setting [8]) was 14.6 nM; in the series on HT-29 cells [2] (Homo sapiens), 33.8 nM; in the series on BT-549 cells (Homo sapiens), 31.9 nM; with HCT-116 cells [3] (Homo sapiens), greater than 10000 nM; against KIF18A, 27.9 nM. Moreover, the values for the EC50 in the series on HT-29 cells [4] (Homo sapiens) and in the series on HCT-116 cells [5] (Homo sapiens) were 26.7 nM and greater than 10000 nM, respectively. For the same compound, the F in [7] (PO @30mpk) is given as 44%. The compound also gave an exposure (AUC) in series [7] (30 mg/kg, PO @30mpk) of 154 µM·h. Besides, in series [7] (30 mg/kg, PO @30mpk), the highest concentration (Cmax) was found to be 6.98 µM. Further, the half-life in series [7] (30 mg/kg, PO @30mpk) is 146 h.
For `CS(=O)(=O)Nc1ccc(C(=O)Nc2cn3cnnc3c(N3CCC(F)(F)CC3)n2)c(N2CC3CCC(C3)C2)c1` [Compound 65], the IC50 with OVCAR3 cells [6] (setting [8]) was 14.6 nM; in the series with HT-29 cells [2] (Homo sapiens) it was 40.4 nM; in the series with BT-549 cells (Homo sapiens) it was 53.2 nM; in the series with HCT-116 cells [3] (Homo sapiens), greater than 10000 nM; against KIF18A, 19.2 nM. Further, the concentration giving a half-maximal response (EC50) in the series with HT-29 cells [4] (Homo sapiens) was 20 nM; in the series on HCT-116 cells [5] (Homo sapiens) it was greater than 10000 nM. The F in series [7] (PO @5mpk) is recorded as 82%. Also, the AUC in [7] (5 mg/kg, PO @5mpk) was 19.9 µM·h. The Cmax in [7] (5 mg/kg, PO @5mpk) was 3.56 µM. Besides, in series [7] (5 mg/kg, PO @5mpk), the half-life is 3.9 h.
As to `CS(=O)(=O)Nc1ccc(C(=O)Nc2cc3cn[nH]c3c(N3CCC(F)(F)CC3)n2)c(N2CC3CCC(C3)C2)c1` [Compound 69], the IC50 in the series with OVCAR3 cells [6] (setting [8]) is 6.5 nM; in the series on HT-29 cells [2] (Homo sapiens), 11.5 nM; in the series with BT-549 cells (Homo sapiens), 39.6 nM; in the series on HCT-116 cells [3] (Homo sapiens), greater than 10000 nM; on KIF18A, 26 nM. Also, the figures for the EC50 with HT-29 cells [4] (Homo sapiens) and in the series with HCT-116 cells [5] (Homo sapiens) were 4.8 nM and greater than 10000 nM, respectively. The F in series [7] (PO @30mpk) is reported as 385%. In [7] (30 mg/kg, PO @30mpk), this compound showed an AUC of 221 µM·h. The peak concentration (Cmax) in series [7] (30 mg/kg, PO @30mpk) was found to be 20.5 µM. Also, the half-life in series [7] (30 mg/kg, PO @30mpk) is 8.2 h.
In the case of `O=C(Nc1cc2nccnc2c(N2CCC(F)(F)CC2)n1)c1ccc(NS(=O)(=O)CCO)cc1N1CC2CCC(C2)C1` [Compound 73], the IC50 is 20.2 nM in the series with OVCAR3 cells [6] (setting [8]); 41.8 nM with HT-29 cells [2] (Homo sapiens); 77.9 nM in the series with BT-549 cells (Homo sapiens); greater than 10000 nM in the series with HCT-116 cells [3] (Homo sapiens); 38.4 nM against KIF18A. Further, the values for the EC50 with HT-29 cells [4] (Homo sapiens) and in the series with HCT-116 cells [5] (Homo sapiens) were 24.8 nM and greater than 10000 nM, respectively. In addition, the F in series [7] (PO @30mpk) worked out at 72%. Moreover, in [7] (30 mg/kg, PO @30mpk), the exposure (AUC) is 69.1 µM·h. The compound also gave a maximum concentration (Cmax) in series [7] (30 mg/kg, PO @30mpk) of 4.66 µM. Further, the half-life in series [7] (30 mg/kg, PO @30mpk) was 3.8 h.
